Test results: patent US4218566A, “11-(2-Hydroxyethylthio) prostenoic acid E and F series derivatives” (American Cyanamid Company, priority 1978, dated 1980)
Like-named read-outs stand apart in the source and are kept apart here.

Columns and labels:
Assay type in all cases: in vivo
[1] = system: bronchospasms; assay: bronchodilator activity overall, guinea pig Konzett assay; conditions: for Potency (Range 0-4): score
Experimental: The natural PGE1, PGE2 and PGE3 compounds are potent in causing multiple biological responses, even at low doses. As a bronchodilator, the natural prostaglandins have an inconveniently short duration of activity.
(§1) Bronchodilator activity is determined in guinea pigs against bronchospasms elicited by intravenous injections of 5-hydroxytryptamine, histamine of acetylcholine by the Konzett procedure. [See J. Lulling, P. Lievens, F. El Sayed and J. Prignot, Arzneimittel-Forschung, 18, 995 (1968)].
(§2) In the Table I which follows, bronchodilator activity for representative compounds of this invention against one or more of the three spasmogenic agents is expressed as an ED50 determined from the results obtained with three logarithemic cumulative intravenous doses.
(§3) The compounds dl-methyl ester of 11-deoxy-11α-(2-hydroxyethylthio)-15α-prostaglandin E2 (hereinafter called Compound I) and dl-methyl ester of 11-deoxy-11α-(2-hydroxyethoxy)-15α-prostaglandin E2 (hereinafter called Compound II) were submitted for testing in the modified Konzett procedure [J. Lulling, P. Lievens, F. El Sayed and J. Prignot, Arzneimittel-Forschung, 18, 995 (1968)].
(§4) The Modified Guinea Pig Konzett Assay measures the protective effects of experimental compounds against induced bronchospasms in guinea pigs.
(§5) Guinea pigs of either sex, weighing 300 to 500 g. are anesthetized by intraperitoneal injection of urethane at 1.5 g./kg. and curarized by intravenous injection of gallamine at 4 mg./kg. They are artificially ventilated through a tracheal cannula. Respiratory volume is adjusted according to the weight of the animal and the rate of the pump, in such a way as to obtain an insufflation pressure of 15-30 cm. of water.
(§6) The two jugular veins are catheterized, the first one being used for curarization and administration of the test compounds, the other one is used for the injection of the spasmogenic agent. Injections are made at selected speeds with a perfusion pump. The intratracheal pressure is measured with a transducer connected to the tracheal cannula and recorded on a polygraph.
(§7) Bronchial spasms are produced by intravenous injection of acetylcholine hydrochloride, histamine dihydrochloride or 5-hydroxy-tryptamine creatinine sulfate. The speed of injection of the spasmogenic solution and its concentration are chosen to give a dose (kept constant throughout the test) which is able to produce a consistant increase in the tracheal pressure. The injections are repeated every 5 minutes throughout the entire test by means of a program controlled automatic infusion syringe. When three successive control bronchoconstrictions of similar intensity are obtained, the animal is considered to be ready for the assay and receives the first dose of the test compound approximately two minutes later.
(§8) The compound being tested is suspended in 15% ethanol and injected through the jugular vein. The injection is repeated twice per animal at 15 minute intervals, so that three doses, in logarithmic progression, are assayed. Three spasms are recorded for each dose. The "bronchodilating" activity of each compound is assayed in at least four guinea pigs for each of the three spasmogenic substances. The amplitude of the three spasms (i.e. the difference between the maximum total tracheal pressure during the spasms and the normal insufflation pressure without spasm) following the administration of the drug are expressed in cm. of water.
(§9) When the average percent of variation (treated vs. control) of the first spasm following any dose of the compound reaches at least -50%, a regression line of the percent of variation versus the dose is computed in a semi-logarithmic system. The ED50 (dose producing a -50% variation) is then calculated. The same determination is made for the second and third spasm following the administration of a dose of the test compound if at some dose the variation percent reaches -50%.

[2] = system: bronchospasms elicited by histamine; assay: bronchodilator activity, (modified) guinea pig Konzett procedure, histamine-induced bronchospasm; conditions: Cavia porcellus, iv
Experimental: as §1, §2, §3, §4, §5, §6, §7, §8, §9

[3] = system: bronchospasms elicited by acetylcholine; assay: bronchodilator activity, (modified) guinea pig Konzett procedure, acetylcholine-induced bronchospasm; conditions: Cavia porcellus, iv
Experimental: as §1, §2, §3, §4, §5, §6, §7, §8, §9

[4] = system: bronchospasms elicited by 5-hydroxytryptamine; assay: bronchodilator activity, (modified) guinea pig Konzett procedure, 5-hydroxytryptamine-induced bronchospasm; conditions: Cavia porcellus, iv
Experimental: as §1, §2, §3, §4, §5, §6, §7, §8, §9

[5] = histamine, first line of values for the compound, read-out: ED50 HIST.
[6] = acetylcholine, first line of values for the compound, read-out: ED50 ACH.
[7] = acetylcholine, second line of values for the compound, read-out: ED50 ACH.
[8] = 5-HT, first line of values for the compound, read-out: ED50 5-HT
[9] = 5-HT, second line of values for the compound, read-out: ED50 5-HT
[10] = histamine, second line of values for the compound, read-out: ED50 HIST.
[11] = 5-HT, third line of values for the compound, read-out: ED50 5-HT
[12] = spasm 1, read-out: ED50 vs. Histamine Dihydrochloride
[13] = spasm 2, read-out: ED50 vs. Histamine Dihydrochloride
[14] = spasm 3, read-out: ED50 vs. Histamine Dihydrochloride
[15] = spasm 1, read-out: ED50 vs. Acetylcholine Hydrochloride
[16] = spasm 2, read-out: ED50 vs. Acetylcholine Hydrochloride
[17] = spasm 1, read-out: ED50 vs. 5-Hydroxytryptamine Creatinine Sulfate
[18] = spasm 2, read-out: ED50 vs. 5-Hydroxytryptamine Creatinine Sulfate
[19] = spasm 3, read-out: ED50 vs. 5-Hydroxytryptamine Creatinine Sulfate

SMILES	Potency (Range 0-4) [1]	ED50 [2, 5] [mg/kg]	ED50 [3, 6] [mg/kg]	ED50 [3, 7] [mg/kg]	ED50 [4, 8] [mg/kg]	ED50 [4, 9] [mg/kg]	ED50 [2, 10] [mg/kg]	ED50 [4, 11] [mg/kg]	ED50 ([2]; histamine, third line of values for the compound, read-out: ED50 HIST.) [mg/kg]	ED50 ([3]; acetylcholine, third line of values for the compound, read-out: ED50 ACH.) [mg/kg]	bronchodilator potency of Compound I compared with Compound II, statistical analysis ([1]; Compound I vs Compound II)	ED50 [2, 12] [mg/kg]	ED50 [2, 13] [mg/kg]	ED50 [2, 14] [mg/kg]	ED50 [3, 15] [mg/kg]	ED50 [3, 16] [mg/kg]	ED50 [4, 17] [mg/kg]	ED50 [4, 18] [mg/kg]	ED50 [4, 19] [mg/kg]
CCCCC[C@H](O)/C=C/[C@H]1[C@@H](SCCO)CC(=O)[C@@H]1C/C=C\CCCC(=O)OC [methyl nat.-11β(2-hydroxyethylthio)-15α-hydroxy-9-oxo-5-cis,13-trans prostadienoate]	4	0.0455	0.0628	0.671	0.06	–	–	–	–	–	–	–	–	–	–	–	–	–	–
CCCCC[C@H](O)/C=C/[C@H]1[C@H](SCCO)CC(=O)[C@@H]1C/C=C\CCCC(=O)OC [Methyl Nat.-11α-(2-hydroxyethylthio)-15α-hydroxy-9-oxo-5-cis,13-trans-prostadienoate]	4	0.00487	0.0111	–	0.0059	0.035	–	–	–	–	–	–	–	–	–	–	–	–	–
CCCCC(C)(O)C/C=C/C1C(SCCO)CC(=O)C1C/C=C\CCCC(=O)O (stereo not drawn) [Example 225, 11α/β-(2-hydroxyethylthio)-16-hydroxy-16-methyl-9-oxo-5-cis,13-trans-prostadienoic acid]	3	0.02	0.034	–	0.017	0.077	0.108	0.257	–	–	–	–	–	–	–	–	–	–	–
CCCCC[C@H](O)/C=C/[C@H]1C(SCCO)CC(=O)[C@@H]1CCCCCCC(=O)O (stereo partly drawn) [Example 228, Nat. 11α/β-(2-hydroxyethylthio)-15α-hydroxy-9-oxo-13-transprostenoic acid]	4	0.0047	0.011	0.061	0.0055	0.034	0.036	0.078	0.071	0.221	–	–	–	–	–	–	–	–	–
CCCCC[C@H](O)/C=C/[C@H]1[C@H](SCCO)CC(=O)[C@@H]1C/C=C\CCCC(=O)OC (relative stereo) [Compound I, dl-methyl ester of 11-deoxy-11α-(2-hydroxyethylthio)-15α-prostaglandin E2]	–	–	–	–	–	–	–	–	–	–	significantly more potent than Compound II as a bronchodilator	0.0157	0.0671	0.452	0.033	0.289	0.0176	0.0629	0.153
CCCCC(O)C/C=C/C1C(SCCO)CC(=O)C1CCCCCCC(=O)O (stereo not drawn) [Example 226, 11α/β(2-hydroxyethylthio)-16-hydroxy-9-oxo-13-trans-prostenoic acid]	3	0.0195	0.053	–	0.019	0.082	0.15	0.288	–	–	–	–	–	–	–	–	–	–	–
CCCCC[C@H](O)/C=C/[C@H]1C(SCCO)CC(=O)[C@@H]1C/C=C\CCCC(=O)OC (stereo partly drawn) [Example 223, Methyl Nat. 15α-hydroxy-9-oxo-11α/β(2-hydroxyethylthio)-5-cis,13-trans-prostadienoate]	4	0.00424	0.0275	0.391	0.0088	–	0.0442	–	–	–	–	–	–	–	–	–	–	–	–
CCCCC[C@H](O)/C=C/[C@H]1[C@H](OCCO)CC(=O)[C@@H]1C/C=C\CCCC(=O)OC (relative stereo) [Compound II, dl-methyl ester of 11-deoxy-11α-(2-hydroxyethoxy)-15α-prostaglandin E2, reference compound]	–	–	–	–	–	–	–	–	–	–	–	0.152	0.707	1.46	0.506	3.31	0.119	0.495	1.28
